From ChEMBL document CHEMBL4145667, “Targeting Tumor Associated Carbonic Anhydrases IX and XII: Highly Isozyme Selective Coumarin and Psoralen Inhibitors” (ACS Med Chem Lett, 2018) come the findings set out here.

Experiment [1] addresses Carbonic anhydrase 2 (Homo sapiens, UniProt P00918). The experiment can be described thus: Binding affinity to human carbonic anhydrase 2 by stopped flow CO2 hydration method.
Experiment [2] has as its target Carbonic anhydrase 1 (Homo sapiens, UniProt P00915). As to the kind of experiment: Binding affinity to human carbonic anhydrase 1 by stopped flow CO2 hydration method.
Experiment [3] addresses Carbonic anhydrase 9 (Homo sapiens, UniProt Q16790). As to the kind of experiment: Binding affinity to human carbonic anhydrase 9 by stopped flow CO2 hydration method.
Experiment [4] addresses Carbonic anhydrase 12 (Homo sapiens, UniProt O43570). The experiment can be described thus: Binding affinity to human carbonic anhydrase 12 by stopped flow CO2 hydration method.

A value given as a limit tells only on which side of the number the result lay.

Carbonic anhydrase 1, sequence (P00915 whole entry): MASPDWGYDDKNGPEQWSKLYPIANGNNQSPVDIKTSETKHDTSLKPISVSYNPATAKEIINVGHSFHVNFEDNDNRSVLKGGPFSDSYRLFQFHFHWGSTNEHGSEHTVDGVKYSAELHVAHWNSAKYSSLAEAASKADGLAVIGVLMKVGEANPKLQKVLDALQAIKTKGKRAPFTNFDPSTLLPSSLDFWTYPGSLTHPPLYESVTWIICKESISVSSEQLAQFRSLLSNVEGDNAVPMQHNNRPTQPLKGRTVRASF
Carbonic anhydrase 12, sequence (O43570 whole entry): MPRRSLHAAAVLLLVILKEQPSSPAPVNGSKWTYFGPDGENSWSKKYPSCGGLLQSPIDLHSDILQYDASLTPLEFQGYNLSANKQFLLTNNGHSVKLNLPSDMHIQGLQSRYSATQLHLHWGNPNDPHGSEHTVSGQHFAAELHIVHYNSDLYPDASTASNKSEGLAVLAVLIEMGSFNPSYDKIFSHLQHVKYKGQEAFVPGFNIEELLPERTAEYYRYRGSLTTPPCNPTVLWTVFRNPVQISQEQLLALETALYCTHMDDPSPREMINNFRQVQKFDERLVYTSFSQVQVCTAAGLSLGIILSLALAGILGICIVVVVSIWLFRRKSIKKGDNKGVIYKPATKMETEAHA

Regarding `Cc1ccc(-c2coc3cc4oc(=O)c(CC(=O)O)c(C)c4cc23)cc1`, the values for the Ki in experiment [1], in experiment [2] and in experiment [3] were above 10 µM, above 10 µM and 23 nM, respectively.

Regarding `COC(=O)Cc1c(C)c2ccc(OCC(=O)c3ccccc3)cc2oc1=O`, the Ki – broadly, the dissociation constant of the complex between target and ligand, obtained from inhibition or displacement – is above 10 µM in experiment [1], above 10 µM in experiment [2] and 89.7 nM in experiment [3].

With `Cc1c(CC(=O)O)c(=O)oc2cc3occ(-c4ccccc4)c3cc12`, the Ki in experiment [4] is 9.4 nM; in experiment [1] it was above 10 µM; in experiment [2], above 10 µM; in experiment [3], 17.5 nM.

In the case of `COC(=O)Cc1c(C)c2ccc(OCC(=O)c3ccc(C)cc3)cc2oc1=O`, the Ki in experiment [1] is above 10 µM; in experiment [2] it was above 10 µM; in experiment [3], 123 nM.

Take `Cc1c(CC(=O)Nc2ccc(S(N)(=O)=O)cc2)c(=O)oc2cc3occ(-c4ccc(F)cc4)c3cc12`: the Ki in experiment [1] turned out to be 0.0795 µM; in experiment [2], 7.15 µM; in experiment [3] it was 108 nM.

As to `Cc1ccc(-c2coc3cc4oc(=O)c(CC(=O)Nc5ccc(S(N)(=O)=O)cc5)c(C)c4cc23)cc1`, the Ki worked out at 0.56 µM in experiment [1], 7.07 µM in experiment [2] and 91.6 nM in experiment [3].

Turning to `COC(=O)Cc1c(C)c2ccc(OCC(=O)c3ccc(F)cc3)cc2oc1=O`, the Ki in experiment [1] is above 10 µM; in experiment [2], above 10 µM; in experiment [3] it was 84.7 nM.

`Cc1c(CC(=O)O)c(=O)oc2cc3occ(-c4ccc(F)cc4)c3cc12`: the Ki in experiment [4] was 7.4 nM; in experiment [1], above 10 µM; in experiment [2], above 10 µM; in experiment [3], 17.7 nM.

Turning to `Cc1c(CC(=O)Nc2ccc(S(N)(=O)=O)cc2)c(=O)oc2cc3occ(-c4ccc(Cl)cc4)c3cc12`, the results for the Ki in experiment [1], in experiment [2] and in experiment [3] were 0.0551 µM, 6.83 µM and 17.8 nM, respectively.

Consider `Cc1c(CC(=O)Nc2ccc(S(N)(=O)=O)cc2)c(=O)oc2cc3occ(-c4ccccc4)c3cc12`, for which the Ki is 0.0466 µM in experiment [1], 7.02 µM in experiment [2] and 16.5 nM in experiment [3].

Turning to `Cc1c(CC(=O)O)c(=O)oc2cc3occ(-c4ccc(Cl)cc4)c3cc12`, the Ki is above 10 µM in experiment [1], above 10 µM in experiment [2] and 94.7 nM in experiment [3].

As for `COC(=O)Cc1c(C)c2ccc(OCC(=O)c3ccc(Cl)cc3)cc2oc1=O`, the figures for the Ki in experiment [1], in experiment [2] and in experiment [3] were above 10 µM, above 10 µM and 23.6 nM, respectively.
